Converted amounts (≈) assume the structure as drawn.
Test system: not listed separately
Test: Inhibition of NDM-1 (unknown origin)
Design: species or system Bacteria
Settings: not given

IC50 [µM] | pIC50 | SMILES
0.692 | – | COc1cccc2sc(Nc3nnc(-c4cccs4)o3)nc12
118 | – | O=C(O)c1nccn1Cc1ccc(O)cc1
63.4 | – | O=C(O)c1nccn1Cc1ccccc1
0.08 | – | Nc1cccc(-c2cc(C(=O)O)nc(C(=O)O)c2)c1
0.13 | – | O=C(Nc1cccc(-c2cc(C(=O)O)nc(C(=O)O)c2)c1)c1ccccc1
0.19 | – | CN(C)c1ccc(-c2cc(C(=O)O)nc(C(=O)O)c2)cc1
0.13 | – | O=C(O)c1cc(-c2ccccc2O)cc(C(=O)O)n1
0.16 | – | O=c1c2ccccc2sn1-c1ccccc1
68.2 | – | CCC/C(=N\Nc1cccc2cccnc12)C(=O)O
165 | – | NCc1ccc(Cn2ccnc2C(=O)O)cc1
54.9 | – | CCCCC(=O)NC(Cc1c[nH]c2ccccc12)C(=O)SCC(=O)O (stereo not drawn)
– | 4.5 | Cc1cc(-c2ccccc2)c(C(=O)O)[nH]1
600 | – | CC1=C(c2ccc(Cl)cc2)N(/C(C)=N/c2ccc(Br)cc2)C(c2ccc(Cl)cc2)N1c1ccc(Br)cc1 (stereo not drawn)
28.6 | – | CCCCC(=O)NC(Cc1ccccc1)C(=O)SCC(=O)O (stereo not drawn)
19.7 | – | CSCCC(NC(=O)Cc1ccccc1)C(=O)SCC(=O)O (stereo not drawn)
0.306 | – | O=C(O)c1ccc(N(Cc2ccccc2)C(=O)c2cccs2)c(CP(=O)(O)O)n1
0.11 | – | CC(=O)NC1=C(S)/C(=C\S)NC1=O
16.6 | – | O=C(O)CSC(=O)C(Cc1c[nH]c2ccccc12)NC(=O)Cc1ccc(-c2ccccc2)cc1 (stereo not drawn)

IC50 [µM] | pIC50 | SMILES
37.7 | – | CCCCC(=O)NC(CCSC)C(=O)SCC(=O)O (stereo not drawn)
44 | – | O=C(O)CSC(=O)C(Cc1ccccc1)NC(=O)Cc1ccc(-c2ccccc2)cc1 (stereo not drawn)
64.8 | – | C[C@@H](CS)C(=O)N[C@@H](C(=O)O)c1ccc2cc[nH]c2c1
3.45 | – | CC(=O)C1CSC(C(=O)O)N1 (stereo not drawn)
0.322 | – | O=C(O)c1ccc(O)c(CP(=O)(O)O)n1
0.463 | – | Oc1c(C(Nc2ccccn2)c2cccs2)ccc2cccnc12 (stereo not drawn)
27.9 | – | O=C(O)CSC(=O)C(Cc1c[nH]c2ccccc12)NC(=O)Cc1ccccc1 (stereo not drawn)
2.93 | – | O=C(Cc1ccccc1)N[C@@H]1C(=O)N2C(C(=O)O)=C(CSc3nnc(-c4ccc(-n5[se]c6ccccc6c5=O)cc4)[nH]3)CSC12 (stereo partly drawn)
– | 4.2 | Cc1cccc(-c2cc[nH]c2C(=O)O)c1
28.1 | – | CCCC/C(=N\Nc1cccc2ccccc12)C(=O)O
10.3 | – | Oc1c(C(Nc2ccc(F)cc2)c2cncs2)ccc2cccnc12 (stereo not drawn)
82.3 | – | CCCC/C(=N\Nc1cccc2cccnc12)C(=O)O
900 | – | CC1=C(c2ccccc2)N(/C(C)=N/c2ccc(Cl)cc2)C(c2ccccc2)N1c1ccc(Cl)cc1 (stereo not drawn)
400 | – | CC1=C(c2ccc(Cl)cc2)N(/C(C)=N/c2ccc(Cl)cc2)C(c2ccc(Cl)cc2)N1c1ccc(Br)cc1 (stereo not drawn)
24.8 | – | C[C@H](CS)C(=O)N[C@@H](C(=O)O)c1ccc2cc[nH]c2c1
1.13 | – | O=C(O)c1cccc(C(=O)O)n1 [DIPICOLINIC ACID]
0.13 | – | CCN(CC)C(=S)SSC(=S)N(CC)CC [DISULFIRAM]

SMILES | IC50 [µM] | pIC50
O=C(O)[C@@H]1CS[C@H]2CS[C@H](CS)N21 | 23 | –
CC1(C)S[C@@H]2CS[C@@H](CS)N2[C@H]1C(=O)O | 180 | –
CC1(C)S[C@H]2CS[C@H](CS)N2[C@@H]1C(=O)O | 200 | –
O=C(O)[C@H]1CS[C@@H]2CS[C@@H](CS)N12 | 109 | –
O=C(O)c1cccc(CP(=O)(O)O)n1 | 0.374 | –
O=C(O)C(=O)CBr [BROMOPYRUVATE] | 2.57 | –
CC(C)c1cc2c(c(O)c1O)[C@@]1(C(=O)O)CCCC(C)(C)[C@@H]1CC2 [CARNOSIC ACID] | 27.1 | –

Biological target: not listed separately
Test: Binding affinity to NDM-1 (unknown origin) assessed as inhibition constant
Design: species or system Bacteria
Settings: not given

Ki [µM] | SMILES
0.42 | O=C(CSc1n[nH]c(-c2ccncc2)n1)Nc1ccccc1
1.2 | O=C(CSc1nnc(-c2ccncc2)s1)Nc1ccccc1
0.43 | O=C(CSc1nnc(-c2ccccc2O)[nH]1)Nc1ccccc1
0.29 | O=C(O)c1ncsc1NS(=O)(=O)c1cccnc1
140 | O=C(NOC(=O)Oc1ccccc1)OCc1ccccc1
0.81 | O=C(CSc1nnc(-c2ccccc2O)s1)Nc1nc2ccccc2s1
0.35 | O=C(CSc1nnc(-c2ccccc2O)[nH]1)Nc1nc2ccccc2s1
0.6 | O=C(CSc1nnc(-c2ccccc2O)o1)Nc1ccccc1
0.64 | O=C(CSc1nnc(-c2ccccc2O)s1)Nc1ccccc1
0.23 | O=C(CSc1nnc(-c2ccncc2)o1)Nc1ccccc1
0.58 | O=Cc1coc2ccccc2c1=O
2300 | N[C@@H](C(=O)N[C@@H]1C(=O)N2C(C(=O)O)=C(Cl)CS[C@H]12)c1ccccc1 [CEFACLOR ANHYDROUS]

SMILES | Ki [µM]
O=c1c2ccccc2[se]n1-c1ccccc1 [EBSELEN] | 0.38

Test system: Escherichia coli
Test: Antibacterial activity against Escherichia coli expressing NDM-1
Format: functional
Settings: not given

MIC [µg/mL] | SMILES
16 (≈ 54 µM) | CCN(CC)C(=S)SSC(=S)N(CC)CC [DISULFIRAM]

Test system: Klebsiella pneumoniae
Test: Antibacterial activity against Klebsiella pneumoniae N11-2218 expressing NDM-1infected in mouse assessed as survival rate at 10 mg/kg,sc measured after 5 days
Format: functional
Settings: N11-2218, 120 h, time 5 day

SMILES | survival at 10 mg/kg [%]
N[C@H](CN[C@H](CN[C@@H](CC(=O)O)C(=O)O)C(=O)O)C(=O)O | 95
COc1cc(/C=C/c2ccc(O)cc2)cc(OC)c1 [PTEROSTILBENE] | 52
